# Data reported in patent publication US10844077B2, “Thiazolyl-containing compounds for treating proliferative diseases” (Dana-Farber Cancer Institute, Inc., priority 2014, dated 2020).
# Like-named read-outs stand apart in the source and are kept apart here.
# Legend:
# Format in all cases: binding
# broad panel of kinases [1] = target: broad panel of kinases (Homo sapiens, UniProt O14976); details: GAK; 1 μM
# broad panel of kinases [2] = target: broad panel of kinases (Homo sapiens, UniProt Q99558); details: NIK; 1 μM
# broad panel of kinases [3] = target: broad panel of kinases (Homo sapiens, UniProt Q86UE8); details: TLK2; 1 μM
# broad panel of kinases [4] = target: broad panel of kinases (Homo sapiens, UniProt Q00526); details: CDK3; 1 μM
# broad panel of kinases [5] = target: broad panel of kinases (Homo sapiens, UniProt Q9HCP0); details: CSNK1G1; 1 μM
# broad panel of kinases [6] = target: broad panel of kinases (Homo sapiens, UniProt Q8NEV4); details: MYO3A; 1 μM
# broad panel of kinases [7] = target: broad panel of kinases (Homo sapiens, UniProt Q7KZI7); details: MARK2; 1 μM
# broad panel of kinases [8] = target: broad panel of kinases (Homo sapiens, UniProt Q8TD08); details: ERK8; 1 μM
# broad panel of kinases [9] = target: broad panel of kinases (Homo sapiens, UniProt P48736); details: PIK3CG; 1 μM
# broad panel of kinases [10] = target: broad panel of kinases (Homo sapiens, UniProt Q5S007); details: LRRK2; 1 μM
# broad panel of kinases [11] = target: broad panel of kinases (Homo sapiens, UniProt P07332); details: FES; 1 μM
# broad panel of kinases [12] = target: broad panel of kinases (Homo sapiens, UniProt Q09013); details: DMPK; 1 μM
# broad panel of kinases [13] = target: broad panel of kinases (Homo sapiens, UniProt Q9Y6R4); details: MAP3K4; 1 μM
# broad panel of kinases [14] = target: broad panel of kinases (Homo sapiens, UniProt Q13164); details: ERK5; 1 μM
# broad panel of kinases [15] = target: broad panel of kinases (Homo sapiens, UniProt P21860); details: ERBB3; 1 μM
# broad panel of kinases [16] = target: broad panel of kinases (Homo sapiens, UniProt Q9P0L2); details: MARK1; 1 μM
# broad panel of kinases [17] = target: broad panel of kinases (Homo sapiens, UniProt O75914); details: PAK3; 1 μM
# broad panel of kinases [18] = target: broad panel of kinases (Homo sapiens, UniProt Q13882); details: BRK; 1 μM
# broad panel of kinases [19] = target: broad panel of kinases (Homo sapiens, UniProt Q9P286); details: PAK7; 1 μM
# broad panel of kinases [20] = target: broad panel of kinases (Homo sapiens, UniProt Q86Z02); details: HIPK1; 1 μM
# broad panel of kinases [21] = target: broad panel of kinases (Homo sapiens, UniProt Q9UQ88); details: CDC2L2; 1 μM
# broad panel of kinases [22] = target: broad panel of kinases (Homo sapiens, UniProt Q9NY57); details: YANK2; 1 μM
# broad panel of kinases [23] = target: broad panel of kinases (Homo sapiens, UniProt P51817); details: PRKX; 1 μM
# broad panel of kinases [24] = target: broad panel of kinases (Homo sapiens, UniProt P29597); details: 1 μM
# broad panel of kinases [25] = target: broad panel of kinases (Homo sapiens, UniProt Q06418); details: TYRO3; 1 μM
# broad panel of kinases [26] = target: broad panel of kinases (Homo sapiens, UniProt Q9Y5S2); details: MRCKB; 1 μM
# broad panel of kinases [27] = target: broad panel of kinases (Homo sapiens, UniProt Q16832); details: DDR2; 1 μM
# broad panel of kinases [28] = target: broad panel of kinases (Homo sapiens, UniProt P24941); details: CDK2; 1 μM
# broad panel of kinases [29] = target: broad panel of kinases (Homo sapiens, UniProt P00519, E255K); details: ABL1(E255K)-phosphorylated; 1 μM
# broad panel of kinases [30] = target: broad panel of kinases (Homo sapiens, UniProt P50750); details: CDK9; 1 μM
# broad panel of kinases [31] = target: broad panel of kinases (Homo sapiens, UniProt P49336); details: CDK8; 1 μM
# broad panel of kinases [32] = target: broad panel of kinases (Homo sapiens, UniProt O95747); details: OSR1; 1 μM
# broad panel of kinases [33] = target: broad panel of kinases (Homo sapiens, UniProt Q9Y6E0); details: MST3; 1 μM
# broad panel of kinases [34] = target: broad panel of kinases (Homo sapiens, UniProt P41743); details: PRKCI; 1 μM
# broad panel of kinases [35] = target: broad panel of kinases (Homo sapiens, UniProt P36888, D835H); details: FLT3(D835H); 1 μM
# broad panel of kinases [36] = target: broad panel of kinases (Homo sapiens, UniProt O96013); details: PAK4; 1 μM
# broad panel of kinases [37] = target: broad panel of kinases (Homo sapiens, UniProt O00141); details: SGK; 1 μM
# broad panel of kinases (Homo sapiens, UniProt Q16832), sequence (Q16832 22-855 limits assumed): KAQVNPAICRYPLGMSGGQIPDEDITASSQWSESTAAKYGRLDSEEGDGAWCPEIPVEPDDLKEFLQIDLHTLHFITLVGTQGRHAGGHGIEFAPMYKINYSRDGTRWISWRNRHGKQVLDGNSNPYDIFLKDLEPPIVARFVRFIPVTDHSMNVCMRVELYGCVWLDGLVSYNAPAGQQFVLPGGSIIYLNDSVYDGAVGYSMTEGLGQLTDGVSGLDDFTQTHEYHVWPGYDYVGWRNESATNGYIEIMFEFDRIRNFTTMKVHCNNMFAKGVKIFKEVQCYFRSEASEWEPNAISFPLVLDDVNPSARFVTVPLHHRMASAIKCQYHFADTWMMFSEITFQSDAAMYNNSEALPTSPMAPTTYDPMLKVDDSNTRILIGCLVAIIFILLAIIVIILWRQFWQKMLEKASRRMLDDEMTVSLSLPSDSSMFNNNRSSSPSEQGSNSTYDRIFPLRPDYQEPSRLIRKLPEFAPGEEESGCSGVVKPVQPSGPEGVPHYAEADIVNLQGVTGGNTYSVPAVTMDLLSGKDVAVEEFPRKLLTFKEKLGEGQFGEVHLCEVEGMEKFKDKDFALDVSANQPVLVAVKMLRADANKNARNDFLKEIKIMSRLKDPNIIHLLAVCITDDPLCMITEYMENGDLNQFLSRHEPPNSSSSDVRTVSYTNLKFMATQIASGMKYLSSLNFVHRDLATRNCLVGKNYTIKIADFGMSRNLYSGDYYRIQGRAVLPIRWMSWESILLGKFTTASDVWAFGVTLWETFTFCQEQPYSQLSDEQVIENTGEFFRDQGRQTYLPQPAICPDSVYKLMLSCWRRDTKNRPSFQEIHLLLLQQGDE
# broad panel of kinases (Homo sapiens, UniProt P21860), sequence (P21860 20-1342 limits assumed): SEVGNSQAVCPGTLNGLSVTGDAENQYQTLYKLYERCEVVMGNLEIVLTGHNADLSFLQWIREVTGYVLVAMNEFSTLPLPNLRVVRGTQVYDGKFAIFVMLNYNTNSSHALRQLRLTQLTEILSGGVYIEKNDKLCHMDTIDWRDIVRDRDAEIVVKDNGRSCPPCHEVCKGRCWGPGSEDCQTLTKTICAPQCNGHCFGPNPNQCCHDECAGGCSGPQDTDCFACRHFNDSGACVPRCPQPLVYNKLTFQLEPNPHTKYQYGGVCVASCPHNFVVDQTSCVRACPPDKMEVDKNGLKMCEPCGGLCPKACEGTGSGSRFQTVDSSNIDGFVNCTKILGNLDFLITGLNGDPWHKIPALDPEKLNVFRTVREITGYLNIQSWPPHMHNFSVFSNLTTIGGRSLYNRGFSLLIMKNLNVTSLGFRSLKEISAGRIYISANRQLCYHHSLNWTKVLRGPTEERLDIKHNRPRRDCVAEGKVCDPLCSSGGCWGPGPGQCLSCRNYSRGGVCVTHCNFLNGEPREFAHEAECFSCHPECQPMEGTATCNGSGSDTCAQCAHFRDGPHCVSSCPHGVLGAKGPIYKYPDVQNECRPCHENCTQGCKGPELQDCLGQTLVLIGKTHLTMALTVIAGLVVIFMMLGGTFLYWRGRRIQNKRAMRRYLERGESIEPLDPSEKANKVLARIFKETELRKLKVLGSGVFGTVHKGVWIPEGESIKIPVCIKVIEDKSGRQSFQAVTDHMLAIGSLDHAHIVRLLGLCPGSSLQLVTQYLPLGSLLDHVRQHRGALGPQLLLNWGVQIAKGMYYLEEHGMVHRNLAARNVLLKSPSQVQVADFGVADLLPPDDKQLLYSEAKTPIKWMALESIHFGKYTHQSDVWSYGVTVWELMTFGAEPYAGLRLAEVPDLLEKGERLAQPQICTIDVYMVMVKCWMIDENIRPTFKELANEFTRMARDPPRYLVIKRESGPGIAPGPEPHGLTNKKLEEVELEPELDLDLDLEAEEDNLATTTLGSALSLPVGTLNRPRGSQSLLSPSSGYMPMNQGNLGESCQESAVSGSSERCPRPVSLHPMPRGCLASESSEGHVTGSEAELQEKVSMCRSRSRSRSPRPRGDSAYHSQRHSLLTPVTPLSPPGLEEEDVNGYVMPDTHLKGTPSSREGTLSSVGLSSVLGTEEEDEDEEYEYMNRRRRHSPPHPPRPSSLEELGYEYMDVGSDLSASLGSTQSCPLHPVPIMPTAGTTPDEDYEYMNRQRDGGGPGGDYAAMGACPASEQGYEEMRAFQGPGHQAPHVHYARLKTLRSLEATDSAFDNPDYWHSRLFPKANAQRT
# broad panel of kinases (Homo sapiens, UniProt P41743), sequence (P41743 2-596 limits assumed): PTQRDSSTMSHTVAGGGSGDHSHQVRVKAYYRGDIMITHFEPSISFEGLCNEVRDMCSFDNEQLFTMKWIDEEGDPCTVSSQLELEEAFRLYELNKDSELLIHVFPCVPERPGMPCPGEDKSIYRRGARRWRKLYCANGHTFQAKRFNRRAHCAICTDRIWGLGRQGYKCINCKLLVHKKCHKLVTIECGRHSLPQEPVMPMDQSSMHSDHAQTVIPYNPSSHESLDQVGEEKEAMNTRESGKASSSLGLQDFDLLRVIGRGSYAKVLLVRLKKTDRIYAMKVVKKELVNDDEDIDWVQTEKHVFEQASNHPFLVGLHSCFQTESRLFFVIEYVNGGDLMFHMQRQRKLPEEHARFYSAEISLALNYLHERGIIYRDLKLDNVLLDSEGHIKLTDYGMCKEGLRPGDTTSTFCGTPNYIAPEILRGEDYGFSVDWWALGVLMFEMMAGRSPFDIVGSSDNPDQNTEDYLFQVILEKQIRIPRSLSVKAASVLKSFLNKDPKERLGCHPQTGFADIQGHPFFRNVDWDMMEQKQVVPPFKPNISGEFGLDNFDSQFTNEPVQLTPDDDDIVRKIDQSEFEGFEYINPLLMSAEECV
# broad panel of kinases (Homo sapiens, UniProt Q13164), sequence (Q13164 2-816 limits assumed): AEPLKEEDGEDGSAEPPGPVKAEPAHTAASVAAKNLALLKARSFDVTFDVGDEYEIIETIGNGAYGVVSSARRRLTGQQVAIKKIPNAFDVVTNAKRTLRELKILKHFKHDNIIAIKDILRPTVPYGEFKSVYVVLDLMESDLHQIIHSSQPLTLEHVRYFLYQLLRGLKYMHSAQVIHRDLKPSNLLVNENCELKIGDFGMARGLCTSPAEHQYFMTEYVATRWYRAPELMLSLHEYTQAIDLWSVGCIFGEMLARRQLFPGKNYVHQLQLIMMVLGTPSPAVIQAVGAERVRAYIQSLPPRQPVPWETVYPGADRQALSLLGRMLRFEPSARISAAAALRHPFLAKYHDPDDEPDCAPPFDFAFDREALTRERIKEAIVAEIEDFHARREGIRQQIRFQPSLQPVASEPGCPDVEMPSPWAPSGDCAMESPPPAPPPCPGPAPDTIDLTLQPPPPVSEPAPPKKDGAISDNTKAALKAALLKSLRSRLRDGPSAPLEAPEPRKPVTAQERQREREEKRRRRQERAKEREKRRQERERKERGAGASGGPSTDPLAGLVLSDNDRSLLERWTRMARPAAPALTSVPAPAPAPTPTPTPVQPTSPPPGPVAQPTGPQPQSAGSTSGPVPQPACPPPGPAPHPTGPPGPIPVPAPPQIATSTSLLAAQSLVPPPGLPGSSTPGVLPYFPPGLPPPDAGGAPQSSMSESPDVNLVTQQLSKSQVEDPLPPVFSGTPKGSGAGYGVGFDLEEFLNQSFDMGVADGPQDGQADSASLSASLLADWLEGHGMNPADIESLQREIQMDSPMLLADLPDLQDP
# broad panel of kinases (Homo sapiens, UniProt Q06418), sequence (Q06418 41-890 limits assumed): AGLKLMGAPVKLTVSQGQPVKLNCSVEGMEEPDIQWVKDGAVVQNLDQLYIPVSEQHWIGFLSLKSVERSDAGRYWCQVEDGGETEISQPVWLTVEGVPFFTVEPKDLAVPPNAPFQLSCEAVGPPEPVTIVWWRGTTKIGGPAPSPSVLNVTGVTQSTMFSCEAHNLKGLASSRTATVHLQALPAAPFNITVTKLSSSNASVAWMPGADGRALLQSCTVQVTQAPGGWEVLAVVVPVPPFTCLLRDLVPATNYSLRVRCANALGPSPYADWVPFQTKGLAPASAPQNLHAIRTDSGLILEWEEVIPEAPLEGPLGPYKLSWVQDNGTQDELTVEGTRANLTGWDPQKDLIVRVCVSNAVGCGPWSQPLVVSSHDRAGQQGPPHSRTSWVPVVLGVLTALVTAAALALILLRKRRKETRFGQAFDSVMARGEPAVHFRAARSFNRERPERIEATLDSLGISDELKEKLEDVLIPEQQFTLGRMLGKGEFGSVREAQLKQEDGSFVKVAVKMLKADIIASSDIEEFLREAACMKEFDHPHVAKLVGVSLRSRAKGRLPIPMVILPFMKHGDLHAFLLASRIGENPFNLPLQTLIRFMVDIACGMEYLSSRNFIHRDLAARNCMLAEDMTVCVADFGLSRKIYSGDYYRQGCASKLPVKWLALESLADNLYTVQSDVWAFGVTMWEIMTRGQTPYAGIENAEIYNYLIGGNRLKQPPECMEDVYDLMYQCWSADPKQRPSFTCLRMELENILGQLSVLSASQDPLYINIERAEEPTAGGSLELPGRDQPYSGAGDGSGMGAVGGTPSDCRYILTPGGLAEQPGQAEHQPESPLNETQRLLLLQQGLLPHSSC
# broad panel of kinases (Homo sapiens, UniProt O95747), sequence (O95747 2-527 limits assumed): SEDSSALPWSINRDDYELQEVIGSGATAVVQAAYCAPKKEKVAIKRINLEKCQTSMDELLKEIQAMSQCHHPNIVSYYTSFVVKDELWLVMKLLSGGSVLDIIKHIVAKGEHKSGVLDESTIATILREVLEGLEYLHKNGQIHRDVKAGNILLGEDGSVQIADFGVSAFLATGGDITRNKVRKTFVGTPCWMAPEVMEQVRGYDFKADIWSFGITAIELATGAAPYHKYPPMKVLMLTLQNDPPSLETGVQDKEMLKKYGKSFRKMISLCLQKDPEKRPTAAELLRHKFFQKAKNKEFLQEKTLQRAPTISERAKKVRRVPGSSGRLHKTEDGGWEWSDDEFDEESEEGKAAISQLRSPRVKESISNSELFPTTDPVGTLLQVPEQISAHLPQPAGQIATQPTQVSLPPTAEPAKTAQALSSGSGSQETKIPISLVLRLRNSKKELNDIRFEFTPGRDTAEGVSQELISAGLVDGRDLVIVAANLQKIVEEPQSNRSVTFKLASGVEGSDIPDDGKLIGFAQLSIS
Structure (SMILES),percent of control binding remaining (lower = stronger binding) (broad panel of kinases [1]),percent of control binding remaining (lower = stronger binding) (broad panel of kinases [2]),percent of control binding remaining (lower = stronger binding) (broad panel of kinases [3]),percent of control binding remaining (lower = stronger binding) (broad panel of kinases [4]),percent of control binding remaining (lower = stronger binding) (broad panel of kinases [5]),percent of control binding remaining (lower = stronger binding) (broad panel of kinases [6]),percent of control binding remaining (lower = stronger binding) (broad panel of kinases [7]),percent of control binding remaining (lower = stronger binding) (broad panel of kinases [8]),percent of control binding remaining (lower = stronger binding) (broad panel of kinases [9]),percent of control binding remaining (lower = stronger binding) (broad panel of kinases [10]),percent of control binding remaining (lower = stronger binding) (broad panel of kinases [11]),percent of control binding remaining (lower = stronger binding) (broad panel of kinases [12]),percent of control binding remaining (lower = stronger binding) (broad panel of kinases [13]),percent of control binding remaining (lower = stronger binding) (broad panel of kinases [14]),percent of control binding remaining (lower = stronger binding) (broad panel of kinases [15]),percent of control binding remaining (lower = stronger binding) (broad panel of kinases [16]),percent of control binding remaining (lower = stronger binding) (broad panel of kinases [17]),percent of control binding remaining (lower = stronger binding) (broad panel of kinases [18]),percent of control binding remaining (lower = stronger binding) (broad panel of kinases [19]),percent of control binding remaining (lower = stronger binding) (broad panel of kinases [20]),other results
C=CC(=O)N1CC[C@H](Nc2nc(CN3CCOCC3)cc(Nc3ncc(C(=O)Nc4c(C)cccc4C)s3)n2)C1 [Example I-2],11%,91%,97%,73%,100%,93%,100%,97%,100%,94%,98%,98%,83%,91%,0.1%,97%,75%,1.6%,96%,93%,percent of control binding remaining (lower = stronger binding) (broad panel of kinases [21]): 92%; percent of control binding remaining (lower = stronger binding) (broad panel of kinases [22]): 100%; percent of control binding remaining (lower = stronger binding) (broad panel of kinases [23]): 100%; percent of control binding remaining (lower = stronger binding) (broad panel of kinases [24]; TYK2(JH1domain-catalytic)): 89%; percent of control binding remaining (lower = stronger binding) (broad panel of kinases [24]; TYK2(JH2domain-pseudokinase)): 28%; percent of control binding remaining (lower = stronger binding) (broad panel of kinases [25]): 41%; percent of control binding remaining (lower = stronger binding) (broad panel of kinases [26]): 89%; percent of control binding remaining (lower = stronger binding) (broad panel of kinases [27]): 8.6%; percent of control binding remaining (lower = stronger binding) (broad panel of kinases [28]): 100%; percent of control binding remaining (lower = stronger binding) (broad panel of kinases [29]): 0.45%; percent of control binding remaining (lower = stronger binding) (broad panel of kinases [30]): 90%; percent of control binding remaining (lower = stronger binding) (broad panel of kinases [31]): 93%; percent of control binding remaining (lower = stronger binding) (broad panel of kinases [32]): 81%; percent of control binding remaining (lower = stronger binding) (broad panel of kinases [33]): 100%; percent of control binding remaining (lower = stronger binding) (broad panel of kinases [34]): 94%; percent of control binding remaining (lower = stronger binding) (broad panel of kinases [35]): 100%; percent of control binding remaining (lower = stronger binding) (broad panel of kinases [36]): 100%; percent of control binding remaining (lower = stronger binding) (broad panel of kinases [37]): 56%
C=CC(=O)N1CC[C@H](Nc2nccc(Nc3ncc(C(=O)Nc4c(C)cccc4C)s3)n2)C1 [Example I-3],11%,84%,94%,100%,100%,96%,80%,99%,100%,100%,93%,98%,95%,90%,0.8%,93%,51%,9.3%,97%,95%,percent of control binding remaining (lower = stronger binding) (broad panel of kinases [21]): 93%; percent of control binding remaining (lower = stronger binding) (broad panel of kinases [22]): 96%; percent of control binding remaining (lower = stronger binding) (broad panel of kinases [23]): 100%; percent of control binding remaining (lower = stronger binding) (broad panel of kinases [24]; TYK2(JH1domain-catalytic)): 91%; percent of control binding remaining (lower = stronger binding) (broad panel of kinases [24]; TYK2(JH2domain-pseudokinase)): 26%; percent of control binding remaining (lower = stronger binding) (broad panel of kinases [25]): 41%; percent of control binding remaining (lower = stronger binding) (broad panel of kinases [26]): 100%; percent of control binding remaining (lower = stronger binding) (broad panel of kinases [27]): 8.4%; percent of control binding remaining (lower = stronger binding) (broad panel of kinases [28]): 100%; % change compared to control (broad panel of kinases [29]): 0.5%; percent of control binding remaining (lower = stronger binding) (broad panel of kinases [30]): 75%; percent of control binding remaining (lower = stronger binding) (broad panel of kinases [31]): 98%; percent of control binding remaining (lower = stronger binding) (broad panel of kinases [32]): 98%; percent of control binding remaining (lower = stronger binding) (broad panel of kinases [33]): 100%; percent of control binding remaining (lower = stronger binding) (broad panel of kinases [34]): 90%; percent of control binding remaining (lower = stronger binding) (broad panel of kinases [35]): 100%; percent of control binding remaining (lower = stronger binding) (broad panel of kinases [36]): 100%; percent of control binding remaining (lower = stronger binding) (broad panel of kinases [37]): 61%
